# Reference: ChEMBL document CHEMBL4376882, “Photodynamic Therapy for ras-Driven Cancers: Targeting G-Quadruplex RNA Structures with Bifunctional Alkyl-Modified Porphyrins” (J Med Chem, 2020)
# Active and inactive are the calls of the source. The rule behind the calls is not given here.
# How the values were obtained:
# Quadruplex DNA [1] = assay: Binding affinity to human KRAS utr-z RNA g-quadruplex by fluorescence spectroscopy; type: nucleic-acid assay
# [2] = Drug uptake in human PANC1 cells at 5 uM after 2 hrs by FACS analysis; type: ADME, cell-based; settings: panc-1, 2 h
# Quadruplex DNA [3] = assay: Binding affinity to human KRAS utr-1 RNA g-quadruplex by fluorescence spectroscopy; type: nucleic-acid assay
# [4] = Drug uptake in human PANC1 cells in presence of dynamin-inhibitor dynasore; type: ADME, cell-based; settings: panc-1
# [5] = Drug uptake in human PANC1 cells at 5 uM after 16 hrs by FACS analysis; type: ADME, cell-based; settings: panc-1, 16 h
# Quadruplex DNA [6] = assay: Binding affinity to human KRAS utr-c RNA g-quadruplex by fluorescence spectroscopy; type: nucleic-acid assay
# Quadruplex DNA [7] = assay: Binding affinity to NRAS RNA g-quadruplex (unknown origin) by fluorescence spectroscopy; type: nucleic-acid assay
# [8] = Binding affinity to 20-mer stem-loop RNA (unknown origin) assessed as compound-RNA complex stoichiometry ratio of 2:1 by Job's plot analysis
# Quadruplex DNA [9] = assay: Binding affinity to human KRAS utr-z RNA g-quadruplex assessed as compound-RNA complex stoichiometry ratio of 4:1 by Job's plot analysis; type: nucleic-acid assay
# Quadruplex DNA [10] = assay: Binding affinity to human KRAS utr-z RNA g-quadruplex assessed as compound-RNA complex stoichiometry ratio of 1:1 by Job's plot analysis; type: nucleic-acid assay
# RNA [11] = assay: Binding affinity to total RNA in human PANC1 cells assessed as increase in amount of beta2-microglobulin mRNA in recovered RNA from biotin-streptavidin pulled down at 0.2 to 0.6 uM at pH 7.4 and 4 degree C using biotinylated compound by qRT-PCR analysis; type: cell-based
# DNA [12] = assay: Binding affinity to DNA (unknown origin) strands containing 95 and 89 nucleotides in ratio of 1:2 assessed as interaction between G4 motif of 95 nucleotides and biotinylated compound at 0.2 to 0.4 uM at pH 7.4 after 1 hr by biotin-streptavidin pull-down assay; type: nucleic-acid assay
# RNA [13] = assay: Binding affinity to total RNA in human PANC1 cells assessed as increase in amount of KRAS mRNA in recovered RNA from biotin-streptavidin pulled down at 0.2 to 0.6 uM at pH 7.4 and 4 degree C using biotinylated compound by qRT-PCR analysis relative to control; type: cell-based
# RNA [14] = assay: Binding affinity to total RNA in human PANC1 cells assessed as increase in amount of HPRT mRNA in recovered RNA from biotin-streptavidin pulled down at 0.2 to 0.6 uM at pH 7.4 and 4 degree C using biotinylated compound by qRT-PCR analysis; type: cell-based
# DNA [15] = assay: Binding affinity to DNA (unknown origin) strands containing 95 and 89 nucleotides in ratio of 1:2 assessed as presence of ssDNA when G4 motif of 95 nucleotides interact with biotinylated compound at > 0.4 uM at pH 7.4 after 1 hr by biotin-streptavidin pull-down assay; type: nucleic-acid assay
# RNA [16] = assay: Binding affinity to total RNA in human PANC1 cells assessed as increase in amount of NRAS mRNA in recovered RNA from biotin-streptavidin pulled down at 0.2 to 0.6 uM at pH 7.4 and 4 degree C using biotinylated compound by qRT-PCR analysis relative to control; type: cell-based
# PANC-1 [17] = assay: Cytotoxicity against human PANC1 cells assessed as reduction in metabolic activity at 20 nM after 24 to 72 hrs in dark followed by photoirradiation in presence of NADH by resazurin assay; type: functional, cell-based
# MIA PaCa-2 = assay: Cytotoxicity against human MIAPaCa2 cells harboring G12C point mutation assessed as reduction in metabolic activity after 48 hrs in dark followed by photoirradiation in presence of NADH by resazurin assay; type: functional, cell-based
# [18] = Binding affinity to NRAS RNA g-quadruplex (unknown origin) at 40 degree C by SPR analysis; type: nucleic-acid assay
# PANC-1 [19] = assay: Cytotoxicity against human PANC1 cells assessed as reduction in metabolic activity after 48 hrs in dark followed by photoirradiation in presence of NADH by resazurin assay; type: functional, cell-based; settings: PANC-1, light or radiation study
# HEK293 = assay: Cytotoxicity against human HEK293 cells assessed as reduction in metabolic activity after 24 to 72 hrs in dark followed by photoirradiation in presence of NADH by resazurin assay; type: ADME, cell-based
# PANC-1 [20] = assay: Cytotoxicity against human PANC1 cells assessed as reduction in metabolic activity at 20 nM after 24 to 72 hrs in dark followed by photoirradiation in presence of NADH and NAC by resazurin assay; type: functional, cell-based
# Quadruplex DNA [21] = assay: Binding affinity to human KRAS utr-z RNA g-quadruplex at 40 degree C by SPR analysis; type: nucleic-acid assay
smiles,measurement,setting,value
C[n+]1ccc(-c2c3nc(c(-c4cc[n+](C)cc4)c4ccc([nH]4)c(-c4cc[n+](C)cc4)c4nc(c(-c5cc[n+](C)cc5)c5ccc2[nH]5)C=C4)C=C3)cc1.[Cl-].[Cl-].[Cl-].[Cl-] [TMPYP4 CHLORIDE],Kd,Quadruplex DNA [1],681 nM
same,Drug uptake,[2],Not Active
same,Kd,Quadruplex DNA [3],454 nM
same,Drug uptake,[4],Active
same,Drug uptake,[5],Active
same,Kd,Quadruplex DNA [6],1020 nM
same,Kd,Quadruplex DNA [7],301 nM
C[n+]1ccc(-c2c3nc(c(-c4cc[n+](C)cc4)c4ccc([nH]4)c(-c4cc[n+](C)cc4)c4ccc([nH]4)c(-c4cc[n+](C)cc4)c4nc2C=C4)C=C3)cc1,Activity,[8],Active
same,Activity,Quadruplex DNA [9],Active
same,Activity,Quadruplex DNA [10],Active
C[n+]1ccc(-c2c3nc(c(-c4cc[n+](C)cc4)c4ccc([nH]4)c(-c4cc[n+](CCCCCCCCCCCCNC(=O)CCCC[C@@H]5SC[C@@H]6NC(=O)N[C@@H]65)cc4)c4nc(c(-c5cc[n+](C)cc5)c5ccc2[nH]5)C=C4)C=C3)cc1,Activity,RNA [11],inactive
same,Activity,DNA [12],Active
same,fold change (FC),RNA [13],25
same,Activity,RNA [14],inactive
same,Activity,DNA [15],Active
same,Activity,RNA [16],Active
CCCCCCCCCCCC[n+]1ccc(-c2c3nc(c(-c4cc[n+](C)cc4)c4ccc([nH]4)c(-c4cc[n+](C)cc4)c4nc(c(-c5cc[n+](C)cc5)c5ccc2[nH]5)C=C4)C=C3)cc1.[I-].[I-].[I-].[I-],Activity,PANC-1 [17],Active
same,Activity,MIA PaCa-2,Active
same,Kd,[18],56 to 98 nM
same,EC50,PANC-1 [19],13.1 nM
same,Activity,HEK293,Non-Toxic
same,Activity,PANC-1 [20],inactive
same,Kd,Quadruplex DNA [21],82 to 202 nM
